Results from PubChem BioAssay AID504576 (Southern Research Specialized Biocontainment Screening …, 2011).

What follows are molecules tested on MAGI cells cytotoxicity, 2% serum, % cell control (assay: viability reduction in MAGI cells – cell-based, CCR5-tropic MAGI assay, 2% serum, set 4, cytotoxicity control for HIV-1 antiviral lead project, dose response (AID 504576)).
Work on `Cc1c2c(=O)n(-c3nc4ccccc4s3)nc-2cc(O)n1CCc1ccc(O)cc1` yielded a CC50 of 20.5 µM. `COc1ccc(CCn2c(O)cc3nn(-c4nc5ccccc5s4)c(=O)c-3c2C)cc1` showed a CC50 of 13.8 µM. For `COc1ccccc1Cn1c(O)cc2nn(-c3nc4ccccc4s3)c(=O)c-2c1C`, the CC50 was 43.2 µM. Work on `Cc1c2c(=O)n(-c3nc4ccccc4s3)nc-2cc(O)n1Cc1ccccc1Cl` yielded a CC50 of 32.9 µM. For `Cc1c2c(=O)n(-c3nc4ccccc4s3)nc-2cc(O)n1CCc1cccs1`, the CC50 was 74.8 µM. Molecule `COc1ccc(Cn2c(O)cc3nn(-c4nc5ccccc5s4)c(=O)c-3c2C)cc1` has a CC50 of 41.1 µM. With `Cc1c2c(=O)n(-c3nc4ccccc4s3)nc-2cc(O)n1CCC(C)C` the CC50 was 65 µM.
